Measurements: US20220411414A1, “INHIBITORS FOR THE B-CATENIN/B-CELL LYMPHOMA 9 (BCL9) PROTEIN-PROTEIN INTERACTION” (H. LEE MOFFITT CANCER CENTER AND RESEARCH INSTITUTE, INC., priority 2018, published 2022)

Legend:
β-catenin/BCL9 = molecular target: T1, β-catenin/BCL9 (Homo sapiens, UniProt P35222); test: AlphaScreen competitive inhibition assay, β-catenin/BCL9 PPI; assay type: binding; details: for Ki: AlphaScreen
T1 construct: Full-length β-catenin and (residues 1-781) were cloned into a pET-28b vector carrying a C-terminal 6× histidine; made in house; host or cells: E. coli BL21 DE3
T1 sequence (P35222 1-781): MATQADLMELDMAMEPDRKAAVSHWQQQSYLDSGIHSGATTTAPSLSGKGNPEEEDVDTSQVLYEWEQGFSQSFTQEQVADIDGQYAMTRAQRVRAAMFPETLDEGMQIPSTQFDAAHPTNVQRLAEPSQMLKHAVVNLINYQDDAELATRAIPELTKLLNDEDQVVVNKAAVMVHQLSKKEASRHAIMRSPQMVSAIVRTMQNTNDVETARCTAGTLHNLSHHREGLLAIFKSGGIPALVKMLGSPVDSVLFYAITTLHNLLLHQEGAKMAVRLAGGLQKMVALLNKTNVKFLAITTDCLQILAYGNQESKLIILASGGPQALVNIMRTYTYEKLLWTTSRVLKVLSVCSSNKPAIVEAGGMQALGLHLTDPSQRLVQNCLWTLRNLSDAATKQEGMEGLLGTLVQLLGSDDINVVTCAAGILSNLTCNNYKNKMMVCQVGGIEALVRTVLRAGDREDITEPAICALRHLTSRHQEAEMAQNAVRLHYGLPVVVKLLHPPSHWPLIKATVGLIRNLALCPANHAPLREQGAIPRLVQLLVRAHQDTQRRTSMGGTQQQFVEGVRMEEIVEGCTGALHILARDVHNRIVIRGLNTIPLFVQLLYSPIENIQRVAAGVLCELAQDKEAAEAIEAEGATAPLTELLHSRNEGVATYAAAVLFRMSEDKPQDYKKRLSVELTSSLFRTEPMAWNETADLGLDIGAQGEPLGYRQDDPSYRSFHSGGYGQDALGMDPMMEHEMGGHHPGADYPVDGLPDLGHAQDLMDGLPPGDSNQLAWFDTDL
Excerpt: The biochemical AlphaScreen assay was employed to evaluate the inhibitory potency of these two final products for disruption of the β-catenin/BCL9 PPI.
(§1) BCL9 peptide synthesis and purification. Human BCL9 (residues 350-375), N-terminally biotinylated human BCL9 (residues 350-375), human E-cadherin (residues 824-877), and N-terminally biotinylated human E-cadherin (residues 824-877) were synthesized by InnoPep Inc. (San Diego, Calif., www.innopep.com). All synthesized peptides were purified by HPLC with purity >95%. The structures were validated by LC/MS. The sequences are as follows (Ahx, 6-aminohexanoic acid).
For the β-catenin/BCL9 assay, 5 nM of biotinylated BCL9 and 40 nM of His6-tagged β-catenin were incubated in assay buffer at 4° C. for 30 min. For the β-catenin/E-cadherin assay, 10 nM of biotinylated human E-cadherin, and 40 nM of His6-tagged human β-catenin were added and incubated in assay buffer at 4° C. for 30 min. Different concentrations of the tested peptide or inhibitor were added and incubated in 20 μL assay buffer at 4° C. for another 1.5 h. All of the above assay plates were covered and gently mixed on an orbital shaker. The donor and acceptor beads were then added to the plates to a final concentration of 10 μg/mL in 25 μL assay buffer. The mixture was incubated for 1 h at 4° C. before detection. The IC50 value was determined by nonlinear least-square analysis of GraphPad Prism 5.0. The inhibition constant (Ki) values were derived from the IC50 values using a method reported by Nikolovska-Coleska et al (Nikolovska-Coleska, Z.; Wang, R.; Fang, X.; Pan, H.; Tomita, Y.; Li, P.; Roller, P. P.; Krajewski, K.; Saito, N. G.; Stuckey, J. A.; Wang, S. Development and optimization of a binding assay for the XIAP BIR3 domain using fluorescence polarization, Anal. Biochem. 2004, 332, 261-273.). The assays were conducted under the conditions required by Nikolovska-Coleska et al.'s equation for determining the Ki values. All of the experiments were performed in triplicate. The results were expressed as mean±standard deviation. The inhibitor selectivity for, β-catenin/BCL9 over, β-catenin/E-cahderin interactions was defined as the ratio of the respective Ki value of β-catenin/E-cadherin interactions over that of β-catenin/BCL9 interactions.

β-catenin/E-cadherin = molecular target: T2, β-catenin/E-cadherin (Homo sapiens, UniProt P35222); test: AlphaScreen selectivity assay, β-catenin/E-cadherin PPI; assay type: binding; details: Table 2, read-out: Ki ± SD β-catenin/E-cadherin
T2 construct: Full-length β-catenin and (residues 1-781) were cloned into a pET-28b vector carrying a C-terminal 6× histidine; made in house; host or cells: E. coli BL21 DE3
T2 sequence (P35222 1-781): T1 sequence (P35222 1-781)
Excerpt: Compounds 4 and 5 were further evaluated with their selectivities for the disruption of β-catenin/BCL9 over β-catenin/E-cadherin interactions using the AlphaScreen selectivity assay (Zhang, M.; Wisniewski, J. A.; Ji, H AlphaScreen selectivity assay for, β-catenin/B-cell lymphoma 9 inhibitors. Anal. Biochen. 2015, 469, 43-53.).
as §1, with “The structures were validated by LC/MS. The sequences are as follows (Ahx, 6-aminohexanoic acid).” left out
For the β-catenin/BCL9 assay, 5 nM of biotinylated BCL9 and 40 nM of His6-tagged β-catenin were incubated in assay buffer at 4° C. for 30 min. […] The IC50 value was determined by nonlinear least-square analysis of GraphPad Prism 5.0. The inhibition constant (Ki) values were derived from the IC50 values using a method reported by Nikolovska-Coleska et al (Nikolovska-Coleska, Z.; Wang, R.; Fang, X.; Pan, H.; Tomita, Y.; Li, P.; Roller, P. P.; Krajewski, K.; Saito, N. G.; Stuckey, J. A.; Wang, S. Development and optimization of a binding assay for the XIAP BIR3 domain using fluorescence polarization, Anal. Biochem. 2004, 332, 261-273.). […] The results were expressed as mean±standard deviation. […]

A549 = test: MTs growth inhibition assay, A549 (Wnt-latent); assay type: cell-based; details: Homo sapiens, read-out: MTs IC50 ± SD A549
[1] = tested on: TOPFlash (three wild-type Tcf binding sites) luciferase reporter; test: Wnt-responsive TOPFlash luciferase reporter assay, β-catenin-activated HEK239; assay type: cell-based; details: 24 h treatment, read-out: TOPFlash IC50 ± SD β-catenin-activated HEK239
Method: (§2) The TOPFlash luciferase reporter assay (in which the luciferase reporter has three wild-type Tcf4 binding sites) was performed with 4 and 5. Cell transfection and luciferase assay. FuGENE6 (E269A, Promega) 96 well plate format was used for the transfection of HEK293 and SW480 cells according to the manufacturer's instruction. HEK293 cells were co-transfected with 45 ng of TOPFlash or FOPFlash reporter gene, 135 ng pcDNA3.1-β-catenin, and 20 ng of pCMV-RL normalization reporter gene. SW480 cells were co-transfected with 60 ng of the TOPFlash or FOPFlash reporter gene and 40 ng of pCMV-RL normalization reporter. Cells were cultured in DMEM and 10% FBS at 37° C. for 24 h, and different concentrations of inhibitors or DMSO was added. After 24 h, the luciferase reporter activity was measured using the Dual-Glo system (E2940, Promega). Normalized luciferase activity in response to the treatment with 4 and 5 was compared with that obtained from the cells treated with DMSO. Experiments were performed in triplicate.

[2] = tested on: TOPFlash (three wild-type Tcf binding sites) luciferase reporter; test: Wnt-responsive TOPFlash luciferase reporter assay, SW480; assay type: cell-based; details: Homo sapiens, 24 h treatment, read-out: TOPFlash IC50 ± SD SW480
Method: as §2

[3] = tested on: FOPFlash (three mutant Tcf4 binding sites) luciferase reporter; test: FOPFlash luciferase reporter assay; assay type: cell-based; details: FIG. 1
Method: as §2, with “Cell” for “The TOPFlash luciferase reporter assay (in which the luciferase reporter has three wild-type Tcf4 binding sites) was performed with 4 and 5. Cell”

[4] = molecular target: T3, β-catenin/BCL9 interaction (Homo sapiens, UniProt P35222); details: literature; cited from earlier work
T3 sequence (P35222 1-781): T1 sequence (P35222 1-781)

Wnt target genes = details: literature; cited from earlier work
activated β-catenin = molecular target: T4, activated β-catenin (Homo sapiens, UniProt P35222); details: literature; cited from earlier work
T4 sequence (P35222 1-781): T1 sequence (P35222 1-781)

| selectivity for β-catenin/BCL9 over β-catenin/E-cadherin PPIs (in words) (β-catenin/BCL9; AlphaScreen biochemical assay) | Ki (β-catenin/BCL9; Table 1, mean ± SD (n = 3)) [µM] | Ki (β-catenin/BCL9; Table 2, mean ± SD (n = 3)) [µM] | Selectivity BCL9/cadherin (β-catenin/BCL9; ratio of Ki β-catenin/E-cadherin over Ki β-catenin/BCL9) | Ki (β-catenin/E-cadherin) [µM] | IC50 (A549) [µM] | IC50 [1] [µM] | IC50 [2] [µM] | Compound | FOPFlash luciferase activity [3] | disruption of the β-catenin/BCL9 interaction [4] | transcription of Wnt target genes / β-catenin-dependent transcription (Wnt target genes) | destabilization of activated β-catenin (activated β-catenin) |
| --- | --- | --- | --- | --- | --- | --- | --- | --- | --- | --- | --- | --- |
| exceptionally high selectivity | 1.6 ± 0.23 | 1.6 ± 0.23 | >570 | > 915 | > 400 | 50 ± 5.2 | 43 ± 3.4 | Cl.Cl.O=C(Nc1ccc(O[C@@H]2CCNC2)c(-c2cccc(-c3nn[nH]n3)c2)c1)c1ccc(O[C@H]2CCNC2)c(-c2ccc3ccsc3c2)c1 [Compound 5, (R)-3-((5-(3-(benzo[b]thiophen-6-yl)-4-(((S)-pyrrolidin-1-ium-3-yl)oxy)benzamido)-3′-(2H-tetrazol-5-yl)-[1,1′-biphenyl]-2-yl)oxy) pyrrolidin-1-ium chloride] | did not inhibit |  |  |  |
|  |  |  |  |  |  |  |  | CC(C)c1cc2c(c(O)c1O)[C@@]1(C(=O)O)CCCC(C)(C)[C@@H]1CC2 [carnosic acid] |  | can disrupt the β-catenin/BCL9 interaction | inhibit | destabilize |
